Patent US7713994B2 (Wyeth LLC, priority 2005, dated 2010)
pIC50: −log10 of the molar value.

These molecules were tested against T1, cyclin D1/cdk 4 enzyme (Homo sapiens, UniProt P11802) (assay: CDK4 ELISA kinase assay (phospho-Rb ser 795 detection)). Conditions: In Vitro Enzyme Assay, cyclin D1/cdk 4, read-out: CDK4 IC50.
T1 construct: made in house; host or cells: Sf9 insect cells, recombinant baculovirus
Format: biochemical
How it was run: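 Inhibition was derived from A450 relative to control wells lacking compound, following an anti-phospho-Rb Ser795 sandwich of HRP detection. The reactions combined coated GST-Rb fragment, 200 μM ATP and baculovirus-expressed cyclin/CDK enzymes, incubated for 1 h at 30° C.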

T1 sequence (P11802 whole entry, species assumed): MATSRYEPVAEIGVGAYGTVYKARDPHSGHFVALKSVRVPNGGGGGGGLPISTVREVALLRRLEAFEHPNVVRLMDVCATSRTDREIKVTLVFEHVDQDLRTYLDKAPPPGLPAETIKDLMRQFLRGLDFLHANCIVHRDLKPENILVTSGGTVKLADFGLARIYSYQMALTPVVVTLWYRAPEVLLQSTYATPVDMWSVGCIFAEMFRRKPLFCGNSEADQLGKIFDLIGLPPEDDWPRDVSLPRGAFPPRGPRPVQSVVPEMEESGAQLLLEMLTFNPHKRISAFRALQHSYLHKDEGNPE
T1 sequence (P24385 whole entry partner, species assumed): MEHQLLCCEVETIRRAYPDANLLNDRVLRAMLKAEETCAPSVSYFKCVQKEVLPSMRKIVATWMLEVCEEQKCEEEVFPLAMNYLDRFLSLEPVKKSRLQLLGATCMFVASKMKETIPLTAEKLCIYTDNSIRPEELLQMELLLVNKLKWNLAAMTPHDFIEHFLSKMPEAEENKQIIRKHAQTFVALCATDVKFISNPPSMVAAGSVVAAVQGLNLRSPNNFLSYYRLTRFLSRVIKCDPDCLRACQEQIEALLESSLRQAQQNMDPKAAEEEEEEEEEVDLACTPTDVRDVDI

pIC50 | Structure (SMILES)
4.70 | NS(=O)(=O)c1ccc(CNC=C2C(=O)NC(=O)c3ccc(-c4ccccc4C(F)(F)F)cc32)cc1 [Example 745, 4-({[1,3-Dioxo-6-(2-trifluoromethyl-phenyl)-2,3-dihydro-1H-isoquinolin-4-ylidenemethyl]-amino}-methyl)-benzenesulfonamide]
4.89 | N#CCc1ccc(NC=C2C(=O)NC(=O)c3ccc(-c4ccc5ccccc5c4)cc32)cc1 [Example 624, {4-[(6-Naphthalen-2-yl-1,3-dioxo-2,3-dihydro-1H-isoquinolin-4-ylidenemethyl)-amino]-phenyl}-acetonitrile]
4.69 | O=C1NC(=O)c2ccccc2C1=CNCc1cccc(NS(=O)(=O)c2cccs2)c1 [Example 579, Thiophene-2-sulfonic acid (3-{[(1,3-dioxo-2,3-dihydro-1H-isoquinolin-4-ylidenemethyl)-amino]-methyl}-phenyl)-amide]
4.52 | CCCS(=O)(=O)Nc1ccc(CNC=C2C(=O)NC(=O)c3ccccc32)cc1 [Example 592, Propane-1-sulfonic acid (4{[(1,3-dioxo-2,3-dihydro-1H-isoquinolin-4-ylidenemethyl)-amino]-methyl}-phenyl)-amide]
4.83 | O=C1NC(=O)c2ccccc2C1=CNc1ccccc1-c1nc2ccccc2[nH]1 [Example 551, 4-{[2-(1H-Benzoimidazol-2-yl)-phenylamino]-methylene}-4H-isoquinoline-1,3-dione]
4.63 | NCc1cccc(CNC=C2C(=O)NC(=O)c3ccccc32)c1 [Example 578, 4-[(3-Aminomethyl-benzylamino)-methylene]-4H-isoquinoline-1,3-dione]
4.51 | COc1ccc(NC=C2C(=O)NCc3cc(Br)ccc32)cc1O [Example 862, 7-Bromo-4-[(3-hydroxy-4-methoxy-phenylamino)-methylene]-1,4-dihydro-2H-isoquinolin-3-one]
4.60 | N#CCc1ccc(NC=C2C(=O)NC(=O)c3ccc(-c4cccc5ccccc45)cc32)cc1 [Example 623, {4-[(6-Naphthalen-1-yl-1,3-dioxo-2,3-dihydro-1H-isoquinolin-4-ylidenemethyl)-amino]-phenyl)-acetonitrile]
4.77 | O=C1NC(=O)c2ccccc2C1=CNc1ccc(O)cc1O [Example 568, 4-[(2,4-Dihydroxy-phenylamino)-methylene]-4H-isoquinoline-1,3-dione]
5.64 | NS(=O)(=O)c1ccc(CNC=C2C(=O)NC(=O)c3ccc(-c4ccc(C(=O)O)cc4)cc32)cc1 [Example 741, 4-{1,3-Dioxo-4-[(4-sulfamoyl-benzylamino)-methylene]-1,2,3,4-tetrahydro-isoquinolin-6-yl}-benzoic acid]
4.96 | Cc1ccccc1-c1ccc2c(c1)C(=CNCc1ccc(S(N)(=O)=O)cc1)C(=O)NC2=O [Example 754, 4-{[(1,3-Dioxo-6-o-tolyl-2,3-dihydro-1H-isoquinolin-4-ylidenemethyl)-amino]-methyl}-benzenesulfonamide]
4.47 | N#CCc1ccc(NC=C2C(=O)NC(=O)c3ccc(-c4csc5ccccc45)cc32)cc1 [Example 628, {4-[(6-Benzo[b]thiophen-3-yl-1,3-dioxo-2,3-dihydro-1H-isoquinolin-4-ylidenemethyl)-amino]-phenyl}-acetonitrile]
4.80 | O=C1NC(=O)c2ccccc2C1=CNc1ccc(O)cc1C(=O)O [Example 562, 2-[(1,3-Dioxo-2,3-dihydro-1H-isoquinolin-4-ylidenemethyl)-amino]-5-hydroxy-benzoic acid]
4.91 | CSc1ccc(-c2ccc3c(c2)C(=CNc2ccc(CC#N)cc2)C(=O)NC3=O)cc1 [Example 723, (4-{[6-(4-Methylsulfanyl-phenyl)-1,3-dioxo-2,3-dihydro-1H-isoquinolin-4-ylidenemethyl]-amino}-phenyl)-acetonitrile]
4.70 | O=C(O)C(=O)Nc1ccc(NC=C2C(=O)NC(=O)c3ccccc32)cc1 [Example 546, N-{4-[(1,3-Dioxo-2,3-dihydro-1H-isoquinolin-4-ylidenemethyl)-amino]-phenyl}-oxalamic acid]
4.31 | CC(C)S(=O)(=O)Nc1cccc(CNC=C2C(=O)NC(=O)c3ccccc32)c1 [Example 580, Propane-2-sulfonic acid (3-{[(1,3-dioxo-2,3-dihydro-1H-isoquinolin-4-ylidenemethyl)-amino]-methyl}-phenyl)-amide]
4.59 | O=C1NC(=O)c2ccccc2C1=CNc1ccc(CN2CCCC(O)C2)cc1 (stereo not drawn) [Example 615, 4-{[4-(3-Hydroxy-piperidin-1-ylmethyl)-phenylamino]-methylene}-4H-isoquinoline-1,3-dione]
4.63 | CS(=O)(=O)Nc1cccc(CNC=C2C(=O)NC(=O)c3ccccc32)c1 [Example 581, N-(3-{[(1,3-Dioxo-2,3-dihydro-1H-isoquinolin-4-ylidenemethyl)-amino]-methyl}-phenyl)-methanesulfonamide]
4.51 | Cc1ccc(-c2ccc3c(c2)C(=CNc2ccc(N4CCN(C)CC4)cc2)C(=O)NC3=O)cc1 [Example 692, 4-{[4-(4-Methyl-piperazin-1-yl)-phenylamino]-methylene}-6-p-tolyl-4H-isoquinoline-1,3-dione]
4.85 | CN1CCN(c2ccc(NC=C3C(=O)NC(=O)c4ccc(C=Cc5ccccc5)cc43)cc2)CC1 [Example 677, 4-{[4-(4-Methyl-piperazin-1-yl)-phenylamino]-methylene}-6-styryl-4H-isoquinoline-1,3-dione]
4.34 | COc1ccc(NC=C2C(=O)NC(=O)c3ccccc32)cc1O [Example 561, 4-[(3-Hydroxy-4-methoxy-phenylamino)-methylene]-4H-isoquinoline-1,3-dione]
4.91 | CN1CCN(c2ccc(NC=C3C(=O)NC(=O)c4ccc(-c5ccccc5F)cc43)cc2)CC1 [Example 684, 6-(2-Fluoro-phenyl)-4-{[4-(4-methyl-piperazin-1-yl)-phenylamino]-methylene}-4H-isoquinoline-1,3-dione]
5.30 | CN1CCN(c2ccc(NC=C3C(=O)NC(=O)c4ccc(C=CCN5CC(=O)NC5=O)cc43)cc2)CC1 [Example 800, 6-[3-(2,4-Dioxo-imidazolidin-1-yl)-propenyl]-4-{[4-(4-methyl-piperazin-1-yl)-phenylamino]-methylene}-4H-isoquinoline-1,3-dione]
4.84 | O=C1NC(=O)c2ccccc2C1=CNc1cccc2c(O)cccc12 [Example 619, 4-[(5-Hydroxy-naphthalen-1-ylamino)-methylene]-4H-isoquinoline-1,3-dione]
4.89 | N#CCc1ccc(NC=C2C(=O)NC(=O)c3ccc(-c4cccc(Cl)c4)cc32)cc1 [Example 713, (4-{[6-(3-Chloro-phenyl)-1,3-dioxo-2,3-dihydro-1H-isoquinolin-4-ylidenemethyl]-amino}-phenyl)-acetonitrile]
4.83 | N#CCc1ccc(NC=C2C(=O)NC(=O)c3ccc(-c4cccc5cccnc45)cc32)cc1 [Example 625, {4-[(1,3-Dioxo-6-quinolin-8-yl-2,3-dihydro-1H-isoquinolin-4-ylidenemethyl)-amino]-phenyl}-acetonitrile]
4.34 | CC(=O)c1ccccc1-c1ccc2c(c1)C(=CNCc1ccc(S(N)(=O)=O)cc1)C(=O)NC2=O [Example 748, 4-({[6-(2-Acetyl-phenyl)-1,3-dioxo-2,3-dihydro-1H-isoquinolin-4-ylidenemethyl]-amino}-methyl)-benzenesulfonamide]
